Experiments:
[1] = test system: cGMP content of myocardium; assay: myocardial cGMP ELISA after ischemia-reperfusion; assay type: in vivo, rat; conditions: 1 μg/kg, 120 min reperfusion
Protocol: To determine whether […] (1-26) protects the heart by a mechanism involving soluble guanylyl cyclase (sGC), rats were treated with ODQ (1 mg/kg, a sGC inhibitor) with or without […] (1-26) (1 μg/kg) prior to ischemia. ODQ abolished the reduction in infarct size caused by […] (1-26), but had no effect alone (FIG. 26A). Tissue accumulation of cGMP was measured after 120 min reperfusion from ischemic and non-ischemic myocardium. In these experiments, the cGMP was measured in the rat hearts by specific ELISA kits according to the manufacturer's instructions (Cayman Chemical, Ann Arbor, Mich.). The hearts (n=6/group) were excised after 120 min reperfusion and immediately frozen in liquid nitrogen, then stored at -80° C. until assayed. Frozen myocardial tissue samples in liquid nitrogen were ground to a fine powder in a stainless-steel mortar. Frozen tissue was dropped into 5-10 volumes (ml of solution/gram of tissue) of 5% trichloroacetic acid (TCA) in water. The samples were homogenized on ice […] using a polytron-type homogenizer. Centrifugation was at 30,000 r.p.m. at room temperature and the supernatant was collected for quantitative immunoassay of cGMP. […] (1-26) treatment group when compared to the control and sham treated groups respectively (FIG. 26B). No difference in cGMP tissue content was observed between the ischemic and non-ischemic zones within the control groups, however, […]

HUVEC cells [2] = assay: Matrigel capillary tube-like formation; assay type: cell-based, human; conditions: 5% FBS, 18 h; parstatin (1-41) 0.3 to 10 μM, other peptides 10 μM
Protocol: Primary human umbilical vein endothelial cells (HUVEC cells) were obtained from freshly delivered umbilical cords from caesarean births and were grown in M199 medium with 20% fetal bovine serum (FBS) supplemented with endothelial cell growth supplement and heparin. One of the most specific tests for angiogenesis is the measurement of the ability of endothelial cells to form capillary-like structures (i.e., tube formation). Tube formation is a multi-step process involving cell adhesion, migration and differentiation. Tube formation can be enhanced by use of Matrigel or fibrin clots to coat plastic culture dishes and it is an accepted model of angiogenesis.
Matrigel™ (Becton Dickinson Labware, N.J., USA) is a mixture of basement membrane components extracted from the Englebreth-Holm-Swarm tumor. […] Matrigel™ (250 μl) was added to each well of a 24-well plate and allowed to polymerize. A suspension of 40,000 HUVEC cells in M199 medium containing 5% FBS was added into each well coated with Matrigel™.
Cells were treated with increasing concentrations of human parstatin (1-41), scrambled parstatin, or parstatin (24-41) fragment. After 18 hours of incubation, the medium was removed, and the cells were fixed and stained, and tube-like structures were quantitated.

HUVEC cells [3] = assay: Fibrin gel in vitro angiogenesis assay; assay type: cell-based, human; conditions: VEGF/bFGF-induced, 24 h; other peptides 10 μM
Protocol: The ability of endothelial cells to form three-dimensional structures was analyzed using a Fibrin gel in vitro angiogenesis assay kit (Chemicon International Inc. Temecula, Calif.). Fibrin gels were formed in 48-well plates by mixing fibrinogen and thrombin solutions, according to manufacturer instructions. Cells (40,000 cells/well) were then added and cultured in medium containing 2% FBS for 18 h. After the addition of a second layer of fibrin gel, endothelial cells sandwiched within fibrin gels were cultured in serum-free medium containing 0.5% bovine serum albumin (BSA) and the combination of VEGF/bFGF for 24 h. Where indicated, parstatin (1-41) or other indicated peptides were added. Capillary-like network was photographed and measured.

HUVEC cells [4] = assay: modified Boyden's chamber cell migration assay; assay type: cell-based, human; conditions: toward 5% FBS, 6 h; other peptides 10 μM
Protocol: HUVEC cell migration was assessed using a modified Boyden's chamber assay, i.e., in Transwell cell culture chambers (Corning Life Sciences, Acton, Mass.). Briefly, polycarbonate filters with 8 μm pores were used to separate the upper and the lower chambers. Cells were added to the upper compartment at a density of 10,000 cells/100 μl in serum-free medium containing 0.5% BSA and incubated for 6 h. Directional migration (chemotaxis) in the lower chamber was induced by addition of medium containing 5% FBS to the lower chamber. Where indicated parstatin or other peptides were added to lower chamber.
Cells on the filters were fixed and stained. The non-migrated cells (cells in upper surface) were removed by wiping with cotton swabs. The cells on the lower surface were counted manually under microscope in six predetermined fields. Parstatin (1-41) attenuated chemotactic cell migration through microporous membrane in response to serum (FIG. 3C). When human parstatin was combined with 5% FBS, the number of migrated cells was reduced in concentration-dependent manner.

HUVEC cells [5] = assay: [3H]-thymidine incorporation (DNA synthesis); assay type: cell-based, human; conditions: serum, bFGF or VEGF; comparison peptides 10 μM
Protocol: The ability of parstatin (1-41) to inhibit DNA synthesis of endothelial cells was assessed in thymidine incorporation assays. HUVEC cells were grown until 60-80% confluent in 24-well plates. Cells were treated with indicated peptides in serum-free medium containing either 0.5% BSA, or VEGF, or bFGF, or medium containing 5% FBS, or epidermal growth factor (EGF), or heparin-binging EGF (HB-EGF) for 18 hours. All cells were pulsed with 0.5 μCi/ml [3H]-thymidine (ICN Biomedicals Inc., Irvine Calif.) for additional 6 h. Radioactivity incorporated into DNA was determined in liquid scintillation counter.

HUVEC cells [6] = assay: MTT cell proliferation assay; assay type: cell-based, human; conditions: 10 μM
Protocol: Cell proliferation was evaluated using a 3-(4,5-[…])-2,5-diphenyltetrazolium bromide (MTT, Sigma-Aldrich, St. Louis, Mo.) assay. Endothelial cells (10,000/well) were seeded in 24-well tissue culture plates and incubated with growth medium for 24 h. Cells were then treated with the vehicle or the indicated peptides in medium containing 5% FBS for 1 to 3 days. After 24, 48, or 72 hours, MTT solution (5 mg/ml) was added to each well and incubated for 3 h at 37° C. The blue formazan crystals were solubilized by addition of DMSO and absorbance at 450 nm was recorded using a 96-well plate reader.

Sequence	cGMP production in the ischemic zone vs non-ischemic zone [1] [fold]	tissue accumulation of cGMP in the ischemic tissue compared to control [1] [fold]	tissue accumulation of cGMP in the ischemic tissue compared to sham [1] [fold]	tube formation on Matrigel (HUVEC cells [2])	capillary-like network (total capillary tube length) in fibrin gels (HUVEC cells [3])	chemotactic cell migration (HUVEC cells [4])	DNA synthesis in HUVEC cells (HUVEC cells [5])	HUVEC cell proliferation (HUVEC cells [6])
MGPRRLLLVAACFSLCGPLLSARTRA (listed as Homo sapiens) [parstatin (1-26)]	2.2	4.6	10.9					
TRARRPESKATNATLDPR (listed as Homo sapiens) [parstatin (24-41), 24-41 (18 amino acids) of human parstatin, hydrophilic fragment]				did not affect	did not affect	without effect	did not cause any significant effect	without effect
